Assay results published in US20080187605A1, “PREVENTING PATHOLOGICAL NERVE CELL SUICIDE (NEUROAPOPTOSIS) IN IMMATURE NERVOUS SYSTEMS” (priority 2007, published 2008).
“Also recorded” adds a separate entry of the source. Read-outs that look alike come from different tables or passages of the source.

Experiments:
ERK-1 = conditions: infant mice; within less than 30 minutes after ethanol
ERK-2 = conditions: infant mice; within less than 30 minutes after ethanol
infant mouse brain [1] = conditions: 6 hrs; for number of AC3-positive profiles, ethanol by itself: ethanol 250 mg/g, mean across 5 brain regions, vs saline
Method: The mean number of AC3-positive profiles per mm^3 across all 5 brain regions was calculated for each treatment condition.

AKT = conditions: infant mice; within 30 minutes after ethanol
[2] = tested on: caudate/putamen of infant mouse brain; assay: Xenon and isoflurane neuroapoptosis, activated caspase-3 stereology
Method: Seven-day-old C57BL/6 mice were exposed to one of four conditions: air (control); 0.75% isoflurane; 70% xenon or 0.75% isoflurane+70% xenon (n≧9 per group) for 4 hours. All pups were euthanized 2 hours later for histopathological evaluation of the brains, using activated caspase-3 immunohistochemical staining to detect apoptotic neurons. Quantitative assessment of the number of apoptotic neurons in caudate/putamen under each condition was performed by unbiased stereology.
The results are depicted graphically in FIG. 7. In this graph, the number of apoptotic neurons under the control condition is given as 100% and the values for the experimental conditions are given as a percentage of the control.

infant mouse brain [3] = conditions: for number of AC3-positive profiles, ketamine by itself: five day old mice, ketamine 40 mg/kg, caudate nucleus and cerebral cortex, vs saline
Method: (§1) Five day old infant mice were treated either with saline or ketamine (40 mg/kg), or lithium carbonate (6 Meq/kg), or ketamine (40 mg/kg) plus lithium (6 Meq/kg). The animals were euthanized 6 hrs after initiation of drug exposure and the neuroapoptosis response in 2 different brain regions (caudate nucleus, cerebral cortex) was evaluated by stereological counting of neuronal profiles showing positive immunohistochemical staining for activated caspase 3 (AC3). The mean number of AC3-positive profiles per mm^3 across these 2 brain regions was calculated for each treatment condition.

[4] = tested on: infant mouse brain (RSC/S and thalamus); conditions: infant mice; single dose of lithium carbonate before brain injury or up to 4 hours after injury
Excerpt: The method used herein for creating a consistent and reproducible head injury, in infant rats and mice, uses an electromagnetic impact device with a moving coil actuator, mounted on the arm of a stereotaxic holder. The actuator is positioned over the skull of an anesthetized animal, and has a blunt tip aimed at a specific location and angle on the skull. The actuator is driven electromagnetically, and impacts the skull at a computer-controlled speed, delivering a precise concussive force to a targeted zone on the skull.
As described in reports such as Bayly et al 2006, this type of concussive force can be applied to a single side of the head, creating nerve cell death by two different mechanisms. Brain cells directly beneath the skull at the site of impact die by an excitotoxic mechanism, which is confined to the local impact zone, and which leads to end-stage cell death within 4 hours. […]
In these tests, apoptotic neurons were detected by immunohistochemical staining of activated caspase-3 proteins. The quantitative counts were performed in RSC/S and thalamus tissues taken from both (i) the ipsilateral side of the brain, which was damaged, and (ii) the contralateral side of the brain, which was not damaged. […]

infant mouse brain [5] = conditions: 6 hrs
Method: as §1, with “The” for “Five day old infant mice were treated either with saline or ketamine (40 mg/kg), or lithium carbonate (6 Meq/kg), or ketamine (40 mg/kg) plus lithium (6 Meq/kg). The”

[6] = tested on: caudate nucleus of infant mouse brain; assay: Pilocarpine pretreatment against isoflurane- or midazolam-induced neuroapoptosis, activated caspase 3 IHC counts
Excerpt: Agents that suppress neuronal activity, including GABAergic anesthetic agents such as midazolam and isoflurane, trigger neuroapoptosis in the infant mouse brain. If suppression of neuronal activity is a sufficient cause of the neuroapoptosis response, it is possible that agents that increase neuronal activity, such as the muscarinic cholinergic agonist, pilocarpine, might counteract this response. […] Control littermates received saline instead of pilocarpine, then were exposed to the same midazolam or isoflurane treatments. The animals were euthanized 6 hrs after initiation of anesthetic drug exposure and the neuroapoptosis response in the caudate nucleus was evaluated by stereological counting of neuronal profiles showing positive IHC staining for activated caspase 3.

7 day old rat brain = conditions: xenon administered 4 hours ahead as preconditioning stimulus; cited from earlier work

With `CCO` [ethanol] the “activated isoform of ERK-1” value (ERK-1) was “rapid decrease”, the “activated isoform of ERK-2” value (ERK-2) was “rapid decrease” and the “number of AC3-positive profiles, ethanol by itself” value (infant mouse brain [1]; five day old mice) was “strong neuroapoptotic response”. The “number of AC3-positive profiles, ethanol by itself” value (infant mouse brain [1]; five day old mice, listed as Ethanol) was “marked increase” and the “activated isoform of AKT” value (AKT) was “marked suppression”.

For `FC(F)OC(Cl)C(F)(F)F` (stereo not shown) [isoflurane], the “neuroapoptosis in the caudate/putamen, drug alone compared to controls” value ([2]; mouse, in vivo) was “significant increase”.

For `CNC1(c2ccccc2Cl)CCCCC1=O` (stereo not shown) [ketamine], the “number of AC3-positive profiles, ketamine by itself” value (infant mouse brain [3]; 6 hrs) was “severe and pathological neuroapoptosis” and the “number of AC3-positive profiles, ketamine by itself” value (infant mouse brain [3]; 6 hrs, listed as Ketamine) was “marked increase”.

For `O=C([O-])[O-].[Li+].[Li+]` [lithium, lithium carbonate], the “apoptotic neurodegeneration after traumatic brain injury” value [4] was “prevented almost all”, the “number of AC3-positive profiles, lithium by itself (spontaneous neuroapoptosis)” value (from here on “number of AC3-positive profiles, lithium”) (infant mouse brain [1]; five day old mice, lithium carbonate 3 or 6 Meq/kg (equally strong), vs saline controls) was “marked reduction” and the “apoptosis rate, lithium plus ethanol” value (infant mouse brain [1]; lithium 3 Meq/kg plus ethanol 250 mg/g) was “down to the same rate as in saline controls”. For the same compound, the “apoptosis rate, lithium plus ethanol” value (infant mouse brain [1]; lithium 6 Meq/kg (higher dose) plus ethanol 250 mg/g) was “down to lower than the saline control level”, the “apoptosis rate, lithium plus propofol” value (infant mouse brain [5]; lithium 6 Meq/kg plus propofol 50 mg/kg) was “down to a level lower than the saline control level” and the “number of AC3-positive profiles, lithium” value (infant mouse brain [5]; lithium carbonate 6 Meq/kg, propofol experiment, vs saline controls) was “marked reduction”. For the same compound, the “protection against ketamine-induced neuroapoptosis” value (infant mouse brain [3]; lithium 6 Meq/kg) was “total protection; also recorded: potently prevent”, the “apoptosis rate, lithium plus ketamine” value (infant mouse brain [3]; lithium 6 Meq/kg plus ketamine 40 mg/kg, 6 hrs) was “down to the same level as for lithium alone” and the “number of AC3-positive profiles, lithium” value (infant mouse brain [3]; lithium carbonate 6 Meq/kg, 6 hrs, ketamine experiment, vs saline controls) was “marked reduction”.

With `Cc1ncc2n1-c1ccc(Cl)cc1C(c1ccccc1F)=NC2` [midazolam] the “apoptotic response in the caudate nucleus, anesthetic alone” value ([6]; infant mice, isoflurane 0.75% for 4 hrs or midazolam 9 mg/kg) was “induced”.

In the case of `CC[C@@H]1C(=O)OC[C@@H]1Cc1cncn1C` [pilocarpine], the “neuroapoptotic response to isoflurane in the caudate nucleus” value ([6]; P5 mice, pilocarpine 20 mg/kg 2 hrs before isoflurane 0.75% for 4 hrs, euthanized 6 hrs after start of anesthetic, vs saline pretreatment) is reported as “significantly reduced; also recorded: markedly reduces”, the “neuroapoptotic response to midazolam in the caudate nucleus” value ([6]; P5 mice, pilocarpine 20 mg/kg 2 hrs before midazolam 9 mg/kg, euthanized 6 hrs after start of anesthetic, vs saline pretreatment) is reported as “significantly reduced; also recorded: markedly reduces” and the “degeneration of caudate neurons caused by a GABA anesthetic drug” value ([6]; infant mice, pilocarpine given prior to GABA anesthetic drug) is reported as “completely prevented, or greatly reduced”. For the same compound, the “protective effect depending on timing of pilocarpine” value ([6]; pilocarpine given at the same time as the anesthetic (protective if 2 or more hrs prior)) was “not if given at the same time”.

In the case of `[Xe]` [xenon], the “hypoxic and/or ischemic neurodegeneration” value (7 day old rat brain) is listed as “protect”, the “apoptotic response of xenon together with isoflurane, relative to xenon alone” value ([2]; 0.75% isoflurane+70% xenon for 4 hours) is listed as “only moderately higher” and the “neurotoxic reaction of xenon plus isoflurane, greater than control” value ([2]; 0.75% isoflurane+70% xenon for 4 hours, control (air) given as 100%) is listed as “about 350%”. For the same compound, the “protection against isoflurane-induced neuroapoptosis” value ([2]; 70% xenon combined with 0.75% isoflurane) was “markedly reduces; also recorded: strongly protects; also recorded: markedly protects”, the “degree of neuroapoptotic response, drug alone” value ([2]; 70% xenon or 0.75% isoflurane alone for 4 hours) was “relatively weak neuroapoptogenic potential; also recorded: mild degree; also recorded: mild neuroapoptotic response” and the “neuroapoptosis in the caudate/putamen, drug alone compared to controls” value ([2]; seven-day-old mice, 70% xenon or 0.75% isoflurane for 4 hours, euthanized 2 hours later, vs air) was “significant increase”.
